Measurements reported in patent US20140194528A1, “USAGE OF SODIUM HOUTTUYFONATE ON INHIBITING IDIOPATHIC PULMONARY FIBROSIS AND BLEOMYCIN INDUCED PULMONARY FIBROSIS” (Hong Kong Baptist University, priority 2013, published 2014).

What was measured:
[1] = tested on: BLM induced pulmonary fibrosis mice model; assay: Bleomycin (BLM) induced pulmonary fibrosis mice model, treatment with SH or PA; format: in vivo, Kunming mice; conditions: for lung inflammatory cell infiltration and collagen deposition (H&E staining): 7th, SH both high (90 mg/kg) and low (45 mg/kg) concentrations (FIG. 2); for lung inflammatory cell infiltration and collagen deposition (H&E staining) / lung/body weight ratio: 14th and 28th day; for lung/body weight ratio: SH oral once a day, p<0.05 / p<0.01 vs BLM group (FIG. 1); for hydroxyproline production in lung tissue: 28th day samples, p<0.05 / p<0.01 vs BLM group (FIG. 3C); for deposition of collagens (Sirius Red staining, polarized light): all sample collection time points (7th, 14th, 28th day), SH 90 and 45 mg/kg (FIG. 3A); for collagen I/III ratio: all time points (FIG. 3B)
Description: Kunming mice were obtained from Shanghai Experimental Animal Center, Chinese Academy of Sciences. The animals were housed in stainless steel metabolite cages and observed under a 12 hours light-12 hours dark cycle in a well-ventilated room at 23° C±2° C. They were fed with standard pellet food and tap water ad libitum. The study was approved by the Animal Care and Use Committee of Shanghai University of Traditional Chinese Medicine, and was performed in accordance with the National Institute of Health guidelines for the care and handling of animals.
One hundred and twenty mice (male, 8 weeks old, 18-22 g) were randomly divided into the following 5 groups: sham control operation group (Control); BLM treatment group (BLM); prednisone acetate treatment group (BLM+PA); high concentration SH treatment group (BLM+SH High); and low concentration SH treatment group (BLM+SH Low). In the control group, mice received 1 ml/kg 0.9% sterile saline intratracheally under pentobarbital sodium anesthesia. In the BLM group, mice received a single dose of BLM intratracheally (5 mg in 1 ml sterile saline/body weight (kg)). The control and BLM groups received saline (oral, 5 ml/body weight (kg)) once a day for 4 weeks after BLM injection. We selected the doses of SH based on our previous report and small-scale preliminary experiments. We employed two different administration concentrations. SH was administered orally once a day to both the high (90 mg/kg) and low (45 mg/kg) concentration SH groups. On the 7th, 14th or 28th day, the mice were anesthetized with pentobarbital sodium (50 mg/kg) intraperitoneally.
The lungs were immersed in buffered formalin (10%) for 48 h, then embedded in paraffin and sliced (5 μm) and stained with H&E, or Sirius red. Each sample slice was photographed (x200 magnification) under the microscope (Olympus BX51, 167 Japan). All photos were analyzed with the image-Pro Plus 6.3 analyzing software (Media Cybernetics, Bethesda, Md. USA) by computer. Type I and type III collagen accumulation in the interstitial space of the lung was assessed by polarized light microscopy. Type I or type III collagen volume fraction (CVF) was also determined with Image-Pro 6.3 analyzing software.
All values were expressed as mean±standard deviation (SD). Statistical analysis was performed by one-way analysis of variance for multiple comparisons, followed by Student-Newman-Keuls test to evaluate the difference between two groups. Values of p<0.05 were considered statistically significant for all analyses.

mice lung = assay: Small-scale preliminary experiments with two dosages of BLM in mice; format: in vivo
Description: Two different dosages of BLM (2.5 mg/kg, 5mg/kg) were given to 10 mice (5 mice for each group) for small-scale preliminary experiments. On the 7th and 14th day, the mice were anesthetized with pentobarbital sodium (50 mg/kg) intraperitoneally. […]. […] Therefore, 5 mg of BLM in 2.5 ml sterile saline/body weight (kg) was used to generate BLM induced pulmonary fibrosis mice model. In the BLM group, mice received a single dose of BLM. After the instillation of saline or BLM, the lung/body weight ratio were obtained on the 7th, 14th, and 28th day. […] Both PA and SH reduced the lung/body weight ratio on the 14th and 28th day in BLM mice (*p<0.05, **p<0.01). Meanwhile, there was no significant difference in body weight among all groups.

Compound: CC(=O)OCC(=O)[C@@]1(O)CC[C@H]2[C@@H]3CCC4=CC(=O)C=C[C@]4(C)[C@H]3C(=O)C[C@@]21C [PA, prednisone acetate]
- lung inflammatory cell infiltration and collagen deposition (H&E staining) ([1]; BLM mice): reduced
- lung/body weight ratio ([1]; BLM mice): reduced
- hydroxyproline production in lung tissue ([1]; BLM mice): suppressed
- deposition of collagens (Sirius Red staining, polarized light) ([1]; BLM mice): reduced
- collagen I/III ratio ([1]; BLM+PH group): low collagen I/III ratios

Compound: CCCCCCCCCC(=O)CC(O)S(=O)(=O)O (stereo not shown) [SH, Sodium Houttuyfonate]
- cytokine (IL-1β, IL-6 and TNF-α) production in lung tissues ([1]; BLM mice): inhibit
- lung inflammatory cell infiltration and collagen deposition (H&E staining) ([1]; BLM mice): reduced
- lung/body weight ratio ([1]; BLM mice): reduced
- hydroxyproline production in lung tissue ([1]; BLM mice): suppressed
- deposition of collagens (Sirius Red staining, polarized light) ([1]; BLM mice): reduced
- body weight ([1]; BLM mice, higher dose of SH): without adversely affecting the body weight
- collagen I/III ratio ([1]; BLM+SH High (90 mg/kg)): low collagen I/III ratios
- collagen I/III ratio ([1]; BLM+SH Low (45 mg/kg)): low collagen I/III ratios

Compound: Bleomycin [BLM]
- pathological change of lung (mice lung; BLM 2.5 mg/kg, 7th and 14th day (data not shown)): not significant
- death (mice lung; BLM 5 mg/kg): no death
- lung tissue histological examination (mice lung; BLM 5 mg/kg, 7th and 14th day): showed the fibrotic morphology
